Columns and labels:
[1] = test system: MES-induced seizures; assay: Maximal electroshock-induced seizure (MES) test; assay type: in vivo, male Swiss albino mice; details: for Minimum active dose (mg/kg) MES 0.5 h / Minimum active dose (mg/kg) MES 4 h: oral, lowest dose active in half or more of the mice, n = 6;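 on % protection MES 0.5 h: percent reduction of the test group versus the control group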;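 on % protection MES 4 h: percent reduction of the test group versus the control group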
[2] = test system: mice; assay: Rotarod neurotoxicity screening; assay type: in vivo, male Swiss albino mice; details: for Neurotoxicity (rotarod test), result in words: at the highest dose (300 mg/kg); for Neurotoxicity dose (mg/kg) 0.5 h / Neurotoxicity dose (mg/kg) 4 h: rotarod, oral doses 30, 100, 300 mg/kg
Description: The rotarod test, as described in the literature, was used to evaluate neurotoxicity (NT) in mice. In brief, six mice (one group) were trained to balance on a spinning rod (3 cm diameter and 6 rpm speed) to familiarize with the rotarod apparatus (Orchid Scientific, India). Each mouse underwent three trials to remain on the rotating rod for over 1 minute, with the experiment’s cutoff time (180 s) remaining constant. Different pre-oral (p.o.) doses of test and standard substances were administered to the trained animals.

[3] = test system: induced seizures; assay: Anticonvulsant screening (MES and sc-PTZ), outcome recovery/death
[4] = test system: PTZ-induced seizures; assay: Subcutaneous pentylenetetrazole (sc-PTZ) test; assay type: in vivo, male Swiss albino mice; details: for Minimum active dose (mg/kg) Sc-PTZ 0.5 h / Minimum active dose (mg/kg) Sc-PTZ 4 h: oral, lowest dose active in half or more of the mice, n = 6;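 on % protection Sc-PTZ 0.5 h: percent reduction of the test group versus the control group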;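 on % protection Sc-PTZ 4 h: percent reduction of the test group versus the control group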
[5] = biological target: T1, human carbonic anhydrase II (Homo sapiens, UniProt P00918); assay: Human carbonic anhydrase II colorimetric (p-nitrophenyl acetate) inhibition assay; assay type: biochemical; details: mean ± SEM, three independent experiments in triplicate; read-out: CA II (IC50)
T1 construct: purchased Sino Biological Inc, Beijing, China
Description: (§1) In brief, the reaction mixture contained 60 μL of 50 mM Tris-sulfate buffer (pH 7.6, containing 0.1 mM ZnCl2),10 μL (0.5 mM) of the test compound in 1% DMSO, and 10 μL of human carbonic anhydrase II and IX (Sino Biological Inc, Beijing, China). All the ingredients were mixed well and pre-incubated at 25°C for 10 min. Substrate p-nitrophenyl acetate was prepared as a 6 mM stock solution using 5% of acetonitrile in buffer and was used fresh. […] The total assay volume was adjusted to 100 μL and further incubated at 37°C for 30 min. Furthermore, all the ingredients were mixed properly, and absorbance was measured. […] The results reported are the mean of triplicate experiments (±SEM) and expressed IC50 values, which were calculated.

[6] = biological target: T2, human carbonic anhydrase IX (Homo sapiens, UniProt Q16790); assay: Human carbonic anhydrase IX colorimetric (p-nitrophenyl acetate) inhibition assay; assay type: biochemical; details: mean ± SEM, three independent experiments in triplicate; read-out: CA IX (IC50)
T2 construct: purchased Sino Biological Inc, Beijing, China
Description: as §1

SMILES	% protection MES 0.5 h ([1]; 300 mg/kg oral) [%]	% protection MES 4 h ([1]; 300 mg/kg oral) [%]	Minimum active dose (mg/kg) MES 0.5 h [1] [mg/kg]	Minimum active dose (mg/kg) MES 4 h [1] [mg/kg]	Neurotoxicity dose (mg/kg) 0.5 h [2]	Neurotoxicity dose (mg/kg) 4 h [2]	Recovery/death ([3]; 300 mg/kg oral)	% protection Sc-PTZ 0.5 h ([4]; 300 mg/kg oral) [%]	% protection Sc-PTZ 4 h ([4]; 300 mg/kg oral) [%]	Minimum active dose (mg/kg) Sc-PTZ 0.5 h [4]	Minimum active dose (mg/kg) Sc-PTZ 4 h [4] [mg/kg]	% protection MES 0.5 h ([1]; 100 mg/kg oral) [%]	% protection MES 4 h ([1]; 100 mg/kg oral) [%]	IC50 [5] [nM]	IC50 [6] [nM]	Recovery/death ([3]; 30 mg/kg oral)	Recovery/death ([3]; 100 mg/kg oral)	% protection Sc-PTZ 0.5 h ([4]; 100 mg/kg oral) [%]	% protection Sc-PTZ 4 h ([4]; 100 mg/kg oral) [%]	further results
CCCC(CCC)C(=O)O [Sodium valproate, reference compound]	72.30	63.07	300	300	- (The indication - (dash) denotes a lack of action at the maximum dose supplied (300 mg/kg))	- (The indication - (dash) denotes a lack of action at the maximum dose supplied (300 mg/kg))	Recovery	77.72	63.03	300 mg/kg	300									Neurotoxicity (rotarod test), result in words [2]: no neurotoxicity
COc1ccc(C(=O)Nc2nncs2)cc1OCCN(C)C [Compound 7e, 4-Methoxy-3-(2-(dimethylamino)ethoxy)-N-(1,3,4-thiadiazol-2-yl)benzamide]	60	72.30	30	100	- (The indication - (dash) denotes a lack of action at the maximum dose supplied (300 mg/kg))	- (The indication - (dash) denotes a lack of action at the maximum dose supplied (300 mg/kg))	Recovery	60	67.81	30 mg/kg	100	43.07	58.46	530 ± 30	610 ± 20	Recovery	Recovery	43.07	61.04	% protection MES 0.5 h ([1]; 30 mg/kg oral): 36.92%; % protection Sc-PTZ 0.5 h ([4]; 30 mg/kg oral): 34.26%
O=C(Nc1nncs1)c1cccc(OCCN2CCCCC2)c1 [Compound 6b, 3-(2-(piperidin-1-yl)ethoxy)-N-(1,3,4-thiadiazol-2-yl)benzamide]	41.53	50.76	100	300	- (The indication - (dash) denotes a lack of action at the maximum dose supplied (300 mg/kg))	- (The indication - (dash) denotes a lack of action at the maximum dose supplied (300 mg/kg))	Recovery	10.20	34.17	300 mg/kg	300	30.76			230 ± 40	Recovery	Recovery			
O=C(Nc1nncs1)c1cccc(OCCN2CCOCC2)c1 [Compound 6a, 3-(2-morpholinoethoxy)-N-(1,3,4-thiadiazol-2-yl)benzamide]	30.76	43.07	100	300	- (The indication - (dash) denotes a lack of action at the maximum dose supplied (300 mg/kg))	- (The indication - (dash) denotes a lack of action at the maximum dose supplied (300 mg/kg))	Recovery		19.08	- (The indication - (dash) denotes a lack of action at the maximum dose supplied (300 mg/kg))	300	18.46			400 ± 50	Recovery	Recovery			
CC(=O)Nc1nnc(S(N)(=O)=O)s1 [Acetazolamide, reference compound]			100	100	- (The indication - (dash) denotes a lack of action at the maximum dose supplied (300 mg/kg))	- (The indication - (dash) denotes a lack of action at the maximum dose supplied (300 mg/kg))				100 mg/kg	100	66.15	58.46				Recovery	73.13	58.46	Neurotoxicity (rotarod test), result in words [2]: no neurotoxicity
CN(C)CCOc1cccc(C(=O)Nc2nncs2)c1 [Compound 6e, 3-(2-(dimethylamino)ethoxy)-N-(1,3,4-thiadiazol-2-yl)benzamide]	46.15	73.83	30	100	- (The indication - (dash) denotes a lack of action at the maximum dose supplied (300 mg/kg))	- (The indication - (dash) denotes a lack of action at the maximum dose supplied (300 mg/kg))	Recovery	46.55	74.2	30 mg/kg	100	32.3	55.38	230 ± 20	210 ± 40	Recovery	Recovery	32.39	63.58	% protection MES 0.5 h ([1]; 30 mg/kg oral): 38.46%; % protection Sc-PTZ 0.5 h ([4]; 30 mg/kg oral): 39.02%
COc1ccc(C(=O)Nc2nncs2)cc1OCCN1CCCCC1 [Compound 7b, 4-Methoxy-3-(2-(piperidin-1-yl)ethoxy)-N-(1,3,4-thiadiazol-2-yl)benzamide]		47.69	100	300			Recovery	23.07	32.21	300 mg/kg	300	29.23		740 ± 30	730 ± 20	Recovery	Recovery			
COc1ccc(C(=O)Nc2nncs2)cc1OCCN1CCOCC1 [Compound 7a, 4-Methoxy-3-(2-morpholinoethoxy)-N-(1,3,4-thiadiazol-2-yl)benzamide]		40	100	300			Recovery	16.64	15.38	300 mg/kg	300	16.92		970 ± 50	880 ± 40	Recovery	Recovery			
O=C(Nc1nncs1)c1cccc(OCCN2CCCC2)c1 [Compound 6c, 3-(2-(pyrrolidin-1-yl)ethoxy)-N-(1,3,4-thiadiazol-2-yl)benzamide]	38.46	46.13	100	100	- (The indication - (dash) denotes a lack of action at the maximum dose supplied (300 mg/kg))	- (The indication - (dash) denotes a lack of action at the maximum dose supplied (300 mg/kg))	Recovery	29.26	40.21	100 mg/kg	300	26.15	35.38		470 ± 20	Recovery	Recovery	33.81		

Reference: paper PMC11861159, “Design, synthesis, and in vitro, in vivo, and in silico evaluation of novel substituted 1,3,4-thiadiazole derivatives as anticonvulsant agents” (Frontiers in Chemistry, 2025)
